From ChEMBL document CHEMBL4483862, “Open-source discovery of chemical leads for next-generation chemoprotective antimalarials” (2018)
pIC50: −log10 of the molar value.

Tested on: Plasmodium berghei
Experiment: Luciferase/luciferin-expressing antifolate-resistant parasites were used to infect a culture of HepG2 cells that were pre-incubated with compounds. Infected hepatocytes emit light due to the luciferase reaction. Assay results are presented as the percent inhibition of light emission compared to control. […]
Assay type: functional
Settings: sporozoite; for IC90: read-out: LUCIFERASE INFECTION ASSAY - IC90
[1] = read-out: LUCIFERASE INFECTION ASSAY - IC50

SMILES	pIC50 [1]	IC90 [µM]	further results
CO/N=C1\CC(C)(C)Cc2c(-c3ccn(S(=O)(=O)c4ccccc4Cl)n3)sc(SC)c21	< 5.18	> 6.65	
COc1ccc(NC(=O)Nc2cccc(C(F)(F)F)c2)cc1	< 4.97	> 10.6	
Cc1oc(C(C)(C)C)cc1-c1cc(NC(=O)Nc2ccc(OC(F)(F)F)cc2)n(-c2cc(C(F)(F)F)cc(C(F)(F)F)c2)n1		4.49	pIC50 (HEPG2TOX_HILL_SLOPE 8.23, HEPG2TOX_R_SQUARED 0.187, PBLUC_HILL_SLOPE 2.09, PBLUC_R_SQUARED 0.645, read-out: LUCIFERASE INFECTION ASSAY - IC50): 5.80
O=C(CSc1nnc(/C=C/c2ccc(F)cc2)[nH]1)N(c1ccccc1)C1CCCCC1		1.58	pIC50 (PBLUC_HILL_SLOPE 1.52, PBLUC_R_SQUARED 0.866, read-out: LUCIFERASE INFECTION ASSAY - IC50): 6.43
CC(NCc1nc(N)nc(N(C)C)n1)c1ccccc1Cl (stereo unspecified)	< 5.00	> 10	
CC(C)(C)c1csc(-c2ccc(/C=N/OC(=O)Nc3ccc(Cl)cc3)cc2)n1	< 5.10	> 7.97	
O=C(Nc1nc(-c2c[nH]c3ccccc23)cs1)c1cc(=O)[nH]c2ccccc12		> 10	pIC50 (PBLUC_HILL_SLOPE 7.71, PBLUC_R_SQUARED 0.559, read-out: LUCIFERASE INFECTION ASSAY - IC50): 5.03
Cn1nc(C(F)(F)F)cc1-c1ccc(NC(=O)Nc2cccc(C(F)(F)F)c2)s1		> 7.6	pIC50 (PBLUC_HILL_SLOPE 15.6, PBLUC_R_SQUARED 0.0592, read-out: LUCIFERASE INFECTION ASSAY - IC50): 5.13
O=C(Cc1ccccc1)NCC(=O)N1CCc2nc(NCc3cccc(Oc4ccccc4)c3)ncc2C1	< 5.19	> 6.5	
O=C(NC1CC1)c1ccc(CN(C2CC2)S(=O)(=O)c2cccs2)cc1		> 10	pIC50 (PBLUC_HILL_SLOPE 4.12, PBLUC_R_SQUARED 0.383, read-out: LUCIFERASE INFECTION ASSAY - IC50): 5.10
Cc1ccc(Oc2ccc(OCC(=O)NC3CCN(C(C)C)CC3)cc2)cc1	< 5.00	> 10	
CCCCCNS(=O)(=O)c1cccc2c(N)cccc12	5.42	> 11.3	
Cc1ccc(C2=NN(C(=O)Cn3nc(C)c(S(=O)(=O)N(C)C)c3C)C(c3ccco3)C2)cc1 (stereo unspecified)		> 10	pIC50 (FFLUC_HILL_SLOPE 21, FFLUC_R_SQUARED 0.497, read-out: LUCIFERASE INFECTION ASSAY - IC50): < 5.00
CC1CCC2(CC1)NC(=O)N(CC(=O)NCC(F)(F)F)C2=O (stereo unspecified)	< 5.00	> 10	
CC(=O)Nc1cccc(-c2cn3c(-c4ccc5c(ccn5C)c4)cnc3cn2)c1		7.79	pIC50 (HEPG2TOX_HILL_SLOPE 2.25, HEPG2TOX_R_SQUARED 0.952, PBLUC_HILL_SLOPE 1.38, PBLUC_R_SQUARED 0.642, read-out: LUCIFERASE INFECTION ASSAY - IC50): 5.80
CC(C)c1ccc(NC(=O)Nc2nc(C(N)CCc3ccccc3)cs2)cc1 (stereo unspecified)		7.09	pIC50 (HEPG2TOX_HILL_SLOPE 3.95, HEPG2TOX_R_SQUARED 0.94, PBLUC_HILL_SLOPE 4.47, PBLUC_R_SQUARED 0.626, read-out: LUCIFERASE INFECTION ASSAY - IC50): 5.36
CC(C)(C)C(=O)CSc1nnc(-c2ccccc2F)[nH]1	< 5.00	> 10	
COc1cc(/C=N/NC(=S)Nc2ccccc2OC)ccc1O		> 9.96	pIC50 (FFLUC_HILL_SLOPE 0.707, FFLUC_R_SQUARED 0.581, PBLUC_HILL_SLOPE 0.242, PBLUC_R_SQUARED 0.281, read-out: LUCIFERASE INFECTION ASSAY - IC50): < 5.00
COc1ccc(/C=c2\s/c(=C\C(=O)C(C)(C)C)[nH]c2=O)cc1OCc1cccnc1	< 5.00	> 10	
C=S(=O)(NC(=O)CSc1nnc(C(F)(F)F)n1C)c1ccc(Cl)cc1 (stereo unspecified)		> 7.99	pIC50 (FFLUC_HILL_SLOPE 23.5, FFLUC_R_SQUARED 0.129, read-out: LUCIFERASE INFECTION ASSAY - IC50): < 5.10
Cc1csc(C(C#N)C(=O)CSc2nnc(Nc3ccc(OC(F)(F)F)cc3)s2)n1 (stereo unspecified)		> 10	pIC50 (PBLUC_HILL_SLOPE 2.13, PBLUC_R_SQUARED 0.0111, read-out: LUCIFERASE INFECTION ASSAY - IC50): 5.13
O=C(CCc1ccco1)Nc1ccc(-n2nccn2)cc1		> 10	pIC50 (HEPG2TOX_HILL_SLOPE 10.3, HEPG2TOX_R_SQUARED 0.943, PBLUC_HILL_SLOPE 1.03, PBLUC_R_SQUARED 0.655, read-out: LUCIFERASE INFECTION ASSAY - IC50): 5.31
O=C(Nc1nc2c(-c3ccccc3)c(C(F)(F)F)sc2s1)c1ccc(Cl)cc1		> 7.52	pIC50 (PBLUC_HILL_SLOPE 7.81, PBLUC_R_SQUARED 0.676, read-out: LUCIFERASE INFECTION ASSAY - IC50): 5.20
Cn1c(N)c(C(=O)c2cccc(S(=O)(=O)N3CCc4ccccc43)c2)c(=O)[nH]c1=O		> 10	pIC50 (PBLUC_HILL_SLOPE 10, PBLUC_R_SQUARED 0.0166, read-out: LUCIFERASE INFECTION ASSAY - IC50): < 5.00

SMILES	pIC50 [1]	IC90 [µM]	further results
O=[N+]([O-])c1ccccc1Sc1sc2ncnc(N/N=C/c3cccs3)c2c1-c1ccccc1		1.17	pIC50 (FFLUC_HILL_SLOPE 2.47, FFLUC_R_SQUARED 0.702, HEPG2TOX_HILL_SLOPE 1.48, HEPG2TOX_R_SQUARED 0.963, PBLUC_HILL_SLOPE 5.47, PBLUC_R_SQUARED 0.841, read-out: LUCIFERASE INFECTION ASSAY - IC50): 6.11
CCC(C)c1ccc(S(=O)(=O)N(Cc2ccc(C(=O)NC3CC3)cc2)C2CC2)cc1 (stereo unspecified)		2.3	pIC50 (PBLUC_HILL_SLOPE 1.25, PBLUC_R_SQUARED 0.781, read-out: LUCIFERASE INFECTION ASSAY - IC50): 6.40
Cc1ccc2c(c1)C1CN(C)CCC1N2C(=O)c1sc2ccccc2c1Cl (stereo unspecified)		6.62	pIC50 (PBLUC_HILL_SLOPE 14.0, 2.64, PBLUC_R_SQUARED 0.410, 0.165, read-out: LUCIFERASE INFECTION ASSAY - IC50): 5.44
Cc1ccc(-n2c(-c3ccc(Cl)c(C)c3)csc2=N)c(C)c1	< 5.04	> 9.03	
O=C(Oc1ccc(/C=N/n2cnnc2)cc1)c1ccco1		> 10	pIC50 (PBLUC_HILL_SLOPE 1.92, PBLUC_R_SQUARED 0.124, read-out: LUCIFERASE INFECTION ASSAY - IC50): < 5.00
CCCc1ccc(-c2nc(NC(=O)CCc3ccsc3)sc2C)cc1	< 5.00	> 10	
Cc1nn(C)c(C)c1CC(=O)Nc1ccc(-n2cnc3ccccc32)cc1		> 10	pIC50 (HEPG2TOX_HILL_SLOPE 0.764, HEPG2TOX_R_SQUARED 0.908, PBLUC_HILL_SLOPE 0.735, PBLUC_R_SQUARED 0.618, read-out: LUCIFERASE INFECTION ASSAY - IC50): 5.88
Cc1ccc2c(c1)C1CN(C)CCC1N2C(=O)CCCOc1ccc(Cl)cc1Cl (stereo unspecified)	< 5.00	> 10	
Clc1nc(-c2ccccn2)nc2scc(-c3ccccc3)c12		1.68	pIC50 (HEPG2TOX_HILL_SLOPE 0.933, HEPG2TOX_R_SQUARED 0.89, PBLUC_HILL_SLOPE 8.14, PBLUC_R_SQUARED 0.197, read-out: LUCIFERASE INFECTION ASSAY - IC50): 5.89
NNC(=O)c1cc2ccc3ccccc3c2s1	< 4.87	> 13.6	
Cc1occc1C(=O)N/N=C/C=C1\N(C)c2ccccc2C1(C)C	< 5.00	> 10	
CCCCN(C(=O)CCC(=O)OCC(=O)NC(=O)NCC)c1c(N)n(CCC)c(=O)[nH]c1=O	< 5.00	> 10	
Cn1c(=O)c2ccc(C(=O)Nc3cccc(C(=O)Nc4cccc(C(F)(F)F)c4)c3)nc2n(C)c1=O		> 10	pIC50 (PBLUC_HILL_SLOPE 3.03, PBLUC_R_SQUARED 0.059, read-out: LUCIFERASE INFECTION ASSAY - IC50): 5.18
CCOC(=O)c1c(NC(=O)COC(=O)c2c(C)noc2C)sc(-c2ccccc2)c1C	< 5.00	> 10	
O=C(Cn1ncc(Cl)c(Cl)c1=O)NCC12CC3CC(CC(C3)C1)C2		> 10	pIC50 (FFLUC_HILL_SLOPE 71.8, FFLUC_R_SQUARED 0.575, read-out: LUCIFERASE INFECTION ASSAY - IC50): < 5.00
CC(C)N(C(=O)NC(=O)Nc1nc(-c2ccccc2)cs1)S(C)(=O)=O		> 10	pIC50 (HEPG2TOX_HILL_SLOPE 10.9, HEPG2TOX_R_SQUARED 0.151, read-out: LUCIFERASE INFECTION ASSAY - IC50): < 5.00
CCCn1c(O)nnc1SCC(=O)NC(C)C12CC3CC(CC(C3)C1)C2 (stereo unspecified)	< 5.00	> 10	
CCc1cccc2c(C3=CCN(c4ncccn4)CC3)c[nH]c12	< 5.00	> 10	
COc1ccc(Nc2nccc3[nH]c(-c4ccsc4)cc23)cn1	< 5.00	> 10	
OC1(c2ccc(F)cc2)CS/C(=N\c2cccnc2)N1Cc1ccco1 (stereo unspecified)		> 10	pIC50 (PBLUC_HILL_SLOPE 6.5, PBLUC_R_SQUARED 0.331, read-out: LUCIFERASE INFECTION ASSAY - IC50): 5.06
COc1ccccc1/C=C(/C(=O)OCc1cn2ccccc2c1C#N)c1ccccc1		> 10	pIC50 (PBLUC_HILL_SLOPE 16.4, PBLUC_R_SQUARED 0.216, read-out: LUCIFERASE INFECTION ASSAY - IC50): 5.00
CC1c2ccsc2CCN1C(=S)NC(=O)c1ccc(C(C)(C)C)cc1 (stereo unspecified)		> 8.86	pIC50 (HEPG2TOX_HILL_SLOPE 0.0482, HEPG2TOX_R_SQUARED 0.0333, read-out: LUCIFERASE INFECTION ASSAY - IC50): < 5.05
O=C(CSc1nnc(C2CC2)o1)NCCC1=CCCCC1		3.33	pIC50 (PBLUC_HILL_SLOPE 15.1, PBLUC_R_SQUARED 0.587, read-out: LUCIFERASE INFECTION ASSAY - IC50): 5.54
COCCn1c(SC(C)C(=O)c2ccc(Br)cc2)nnc1-c1cccc(C)c1 (stereo unspecified)	< 5.00	> 10	
